The supplement of paper PMC10307832

Key:
Test in all cases: relative viability (nuclei count vs DMSO), 5 days (fraction); higher = more cells survive
Hydroxychloroquine = compound: CCN(CCO)CCCC(C)Nc1ccnc2cc(Cl)ccc12 [Hydroxychloroquine]
Procedure, shortened: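 Lung cancer cell lines in 1536-well plates were kept overnight at 37 °C, then pinned with five library-drug doses (not always all listed) spaced by √10 on vehicle-anchored plates. After 5 days without medium change, cells were fixed, permeabilised and Hoechst-stained in one step, imaged at 4×, and nuclei were counted with MetaXpress. Viability is treated-well nuclei divided by vehicle-well nuclei, taken as the median over plates. Plates passed only with control CV below 25% and at least one doubling.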

[1] = compound: CCN(CCO)CCCC(C)Nc1ccnc2cc(Cl)ccc12 [Hydroxychloroquine] + CC(=O)c1c(C)c2cnc(Nc3ccc(N4CCNCC4)cn3)nc2n(C2CCCC2)c1=O [Palbociclib] (partner 0.5 µM)
Procedure, shortened: (§1)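 Relative viability is defined as nuclei in treated wells over nuclei in vehicle wells. Duplicate plates were run and medians reported. Lung cancer cell lines in 1536-well plates were dosed by pin tool one day after seeding, with one drug or with a fixed anchor-drug dose plus five library-drug doses (not always all listed) in √10 steps, and nuclei were counted after 5 days.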

[2] = compound: CCN(CCO)CCCC(C)Nc1ccnc2cc(Cl)ccc12 [Hydroxychloroquine] + COc1cc2c(Oc3ccc(NC(=O)C4(C(=O)Nc5ccc(F)cc5)CC4)cc3F)ccnc2cc1OCCCN1CCOCC1 [Foretinib] (partner 0.25 µM)
Procedure, shortened: as §1

[3] = compound: CCN(CCO)CCCC(C)Nc1ccnc2cc(Cl)ccc12 [Hydroxychloroquine] + COc1cccc2cc(-c3nc([C@H]4CC[C@H](C(=O)O)CC4)n4ncnc(N)c34)[nH]c12 [OSI-027] (partner 0.5 µM)
Procedure, shortened: as §1

Cell Line | relative viability (Hydroxychloroquine; 0.5 µM) | relative viability (Hydroxychloroquine; 1.581 µM) | relative viability (Hydroxychloroquine; 5 µM) | relative viability (Hydroxychloroquine; 15.81 µM) | relative viability (Hydroxychloroquine; 50 µM) | relative viability ([1]; first compound 0.5 µM) | relative viability ([1]; first compound 1.581 µM) | relative viability ([1]; first compound 5 µM) | relative viability ([1]; first compound 15.81 µM) | relative viability ([1]; first compound 50 µM) | relative viability ([2]; first compound 0.5 µM) | relative viability ([2]; first compound 1.581 µM) | relative viability ([2]; first compound 5 µM) | relative viability ([2]; first compound 15.81 µM) | relative viability ([2]; first compound 50 µM) | relative viability ([3]; first compound 0.5 µM) | relative viability ([3]; first compound 1.581 µM) | relative viability ([3]; first compound 5 µM) | relative viability ([3]; first compound 15.81 µM) | relative viability ([3]; first compound 50 µM)
NCI-H2405 | 1.03 | 0.955 | 0.968 | 1 | 1.01 | 0.557 | 0.471 | 0.576 | 0.516 | 0.516 | 1.11 | 0.975 | 1.05 | 1.02 | 1.05 | 0.626 | 0.55 | 0.652 | 0.627 | 0.658
NCI-H3122 | 0.999 | 0.997 | 0.99 | 1.05 | 1.06 | 0.208 | 0.193 | 0.194 | 0.234 | 0.21 | 0.92 | 0.934 | 0.945 | 0.985 | 1.03 | 1.05 | 0.962 | 1.12 | 1.2 | 1.18
PC-3 [JPC-3] | 1.01 | 1.08 | 0.957 | 1.06 | 1.02 | 0.538 | 0.576 | 0.59 | 0.561 | 0.511 | 1.07 | 1.14 | 0.99 | 1.02 | 1.07 | 0.743 | 0.642 | 0.82 | 0.745 | 0.924
PC-14 | 1.03 | 0.961 | 0.956 | 1.05 | 1.01 | 0.481 | 0.545 | 0.535 | 0.554 | 0.394 | 0.909 | 0.987 | 1.01 | 0.972 | 0.962 | 0.958 | 0.586 | 0.872 | 0.861 | 0.927
RERF-LC-KJ | 0.937 | 0.978 | 0.99 | 0.939 | 1.05 | 0.838 | 1.16 | 1.03 | 1.12 | 1.06 | 0.757 | 0.825 | 0.872 | 0.918 | 0.941 | 0.587 | 0.5 | 0.537 | 0.631 | 0.609
SK-LU-1 | 1.19 | 0.983 | 0.949 | 1.03 | 1.08 | 0.381 | 0.382 | 0.432 | 0.361 | 0.431 | 0.849 | 0.769 | 0.834 | 0.787 | 0.926 | 0.394 | 0.348 | 0.337 | 0.334 | 0.34
SK-MES-1 | 1.06 | 0.959 | 1.07 | 1.05 | 0.995 | 0.365 | 0.319 | 0.332 | 0.368 | 0.343 | 0.883 | 0.822 | 1.04 | 0.901 | 0.792 | 0.623 | 0.381 | 0.712 | 0.67 | 0.589
SW 1573 | 0.918 | 0.832 | 0.983 | 1.07 | 1.02 | 0.369 | 0.359 | 0.374 | 0.34 | 0.38 | 1.06 | 0.774 | 1.08 | 0.686 | 0.871 | 0.591 | 0.524 | 0.674 | 0.649 | 0.826
UMC-11 | 0.988 | 0.849 | 1.01 | 1.05 | 1.12 | 0.285 | 0.304 | 0.413 | 0.311 | 0.305 | – | 0.978 | 1.12 | 1.04 | 1.19 | – | 0.402 | 0.486 | 0.403 | 0.538
